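Test compounds were applied to cells in 96-well plates for 48 hours at 5 doses. GI50 = concentration required for 50% inhibition of growth. TGI is the concentration that stops growth completely.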
How the values were obtained:
Assay in all cases: DTP human tumour cell line panel, 48 h
T-47D breast = test system: T-47D breast
IGROV1 ovarian = test system: IGROV1 ovarian
RPMI-8226 leukemia = test system: RPMI-8226 leukemia
NCI-H23 lung = test system: NCI-H23 lung
OVCAR-5 ovarian = test system: OVCAR-5 ovarian
NCI-H226 lung = test system: NCI-H226 lung
CCRF-CEM leukemia = test system: CCRF-CEM leukemia
COLO 205 colon = test system: COLO 205 colon
HCT-15 colon = test system: HCT-15 colon
DU-145 prostate = test system: DU-145 prostate
SN12C renal = test system: SN12C renal
HOP-62 NSCLC = test system: HOP-62 NSCLC
MDA-MB-231 breast = test system: MDA-MB-231 breast
EKVX NSCLC = test system: EKVX NSCLC
OVCAR-8 ovarian = test system: OVCAR-8 ovarian
SK-OV-3 ovarian = test system: SK-OV-3 ovarian
MCF7 breast = test system: MCF7 breast
SF-295 CNS = test system: SF-295 CNS
RXF 393 renal = test system: RXF 393 renal
LOX IMVI melanoma = test system: LOX IMVI melanoma
SK-MEL-5 melanoma = test system: SK-MEL-5 melanoma
UACC-257 melanoma = test system: UACC-257 melanoma
HS 578T breast = test system: HS 578T breast
SNB-75 CNS = test system: SNB-75 CNS
786-0 renal = test system: 786-0 renal
SNB-19 CNS = test system: SNB-19 CNS
HOP-92 NSCLC = test system: HOP-92 NSCLC
K-562 leukemia = test system: K-562 leukemia
KM12 colon = test system: KM12 colon
U251 CNS = test system: U251 CNS
PC-3 prostate = test system: PC-3 prostate
SK-MEL-2 melanoma = test system: SK-MEL-2 melanoma
SF-539 CNS = test system: SF-539 CNS
SK-MEL-28 melanoma = test system: SK-MEL-28 melanoma
CAKI-1 renal = test system: CAKI-1 renal
M14 melanoma = test system: M14 melanoma
SF-268 CNS = test system: SF-268 CNS
ACHN renal = test system: ACHN renal
A549 NSCLC = test system: A549 NSCLC
OVCAR-3 ovarian = test system: OVCAR-3 ovarian
UO-31 renal = test system: UO-31 renal
TK-10 renal = test system: TK-10 renal
OVCAR-4 ovarian = test system: OVCAR-4 ovarian
MALME-3M melanoma = test system: MALME-3M melanoma
A498 renal = test system: A498 renal
UACC-62 melanoma = test system: UACC-62 melanoma
HCT-116 colon = test system: HCT-116 colon
HL-60(TB) leukemia = test system: HL-60(TB) leukemia
NCI/ADR-RES ovarian = test system: NCI/ADR-RES ovarian
MDA-MB-435 = test system: MDA-MB-435
MOLT-4 leukemia = test system: MOLT-4 leukemia
BT-549 breast = test system: BT-549 breast

O=[N+]([O-])c1cc([N+](=O)[O-])c(Cl)cc1Cl gave a GI50 (T-47D breast) of 1.71 µM, a TGI (T-47D breast) of 4.42 µM and a GI50 (IGROV1 ovarian) of 1.17 µM. The TGI (IGROV1 ovarian) was 2.74 µM, the GI50 (RPMI-8226 leukemia) was 0.667 µM and the TGI (RPMI-8226 leukemia) was 2.8 µM. The GI50 (NCI-H23 lung) was 1.4 µM, the TGI (NCI-H23 lung) was 3 µM and the GI50 (OVCAR-5 ovarian) was 1.78 µM. For the same compound, the TGI (OVCAR-5 ovarian) was 3.6 µM, the GI50 (NCI-H226 lung) was 2.22 µM and the TGI (NCI-H226 lung) was 5.78 µM. For the same compound, the GI50 (CCRF-CEM leukemia) was 0.217 µM, the TGI (CCRF-CEM leukemia) was 0.505 µM and the GI50 (COLO 205 colon) was 1.77 µM. The TGI (COLO 205 colon) was 3.65 µM, the GI50 (HCT-15 colon) was 1.35 µM and the TGI (HCT-15 colon) was 3.73 µM. For the same compound, the GI50 (DU-145 prostate) was 1.56 µM, the TGI (DU-145 prostate) was 2.9 µM and the GI50 (SN12C renal) was 1.76 µM. The TGI (SN12C renal) was 3.55 µM, the GI50 (HOP-62 NSCLC) was 1.68 µM and the TGI (HOP-62 NSCLC) was 3.27 µM. For the same compound, the GI50 (MDA-MB-231 breast) was 1.94 µM, the TGI (MDA-MB-231 breast) was 3.7 µM and the GI50 (EKVX NSCLC) was 1.68 µM. For the same compound, the TGI (EKVX NSCLC) was 3.31 µM, the GI50 (OVCAR-8 ovarian) was 1.27 µM and the TGI (OVCAR-8 ovarian) was 2.91 µM. It also gave a GI50 (SK-OV-3 ovarian) of 1.78 µM, a TGI (SK-OV-3 ovarian) of 3.21 µM and a GI50 (MCF7 breast) of 1.67 µM. It also gave a TGI (MCF7 breast) of 4.23 µM, a GI50 (SF-295 CNS) of 1.75 µM and a TGI (SF-295 CNS) of 3.63 µM. For the same compound, the GI50 (RXF 393 renal) was 1.68 µM, the TGI (RXF 393 renal) was 3.09 µM and the GI50 (LOX IMVI melanoma) was 0.361 µM. The TGI (LOX IMVI melanoma) was 1.46 µM, the GI50 (SK-MEL-5 melanoma) was 1.79 µM and the TGI (SK-MEL-5 melanoma) was 3.68 µM. It also gave a GI50 (UACC-257 melanoma) of 0.594 µM, a TGI (UACC-257 melanoma) of 2.04 µM and a GI50 (HS 578T breast) of 2.38 µM. It also gave a TGI (HS 578T breast) of 7.56 µM, a GI50 (SNB-75 CNS) of 1.51 µM and a TGI (SNB-75 CNS) of 2.92 µM. It also gave a GI50 (786-0 renal) of 1.71 µM, a TGI (786-0 renal) of 3.21 µM and a GI50 (SNB-19 CNS) of 1.95 µM. For the same compound, the TGI (SNB-19 CNS) was 3.66 µM, the GI50 (HOP-92 NSCLC) was 1.59 µM and the TGI (HOP-92 NSCLC) was 4.11 µM. For the same compound, the GI50 (K-562 leukemia) was 0.249 µM, the TGI (K-562 leukemia) was 0.642 µM and the GI50 (KM12 colon) was 1.64 µM. The TGI (KM12 colon) was 3.05 µM, the GI50 (U251 CNS) was 0.211 µM and the TGI (U251 CNS) was 0.476 µM. For the same compound, the GI50 (PC-3 prostate) was 1.35 µM, the TGI (PC-3 prostate) was 2.88 µM and the GI50 (SK-MEL-2 melanoma) was 1.83 µM. For the same compound, the TGI (SK-MEL-2 melanoma) was 3.44 µM, the GI50 (SF-539 CNS) was 1.73 µM and the TGI (SF-539 CNS) was 3.49 µM. It also gave a GI50 (SK-MEL-28 melanoma) of 1.74 µM, a TGI (SK-MEL-28 melanoma) of 3.24 µM and a GI50 (CAKI-1 renal) of 0.188 µM. For the same compound, the TGI (CAKI-1 renal) was 0.352 µM, the GI50 (M14 melanoma) was 1.73 µM and the TGI (M14 melanoma) was 3.59 µM. It also gave a GI50 (SF-268 CNS) of 1.64 µM, a TGI (SF-268 CNS) of 3.13 µM and a GI50 (ACHN renal) of 1.62 µM. The TGI (ACHN renal) was 3.29 µM, the GI50 (A549 NSCLC) was 1.64 µM and the TGI (A549 NSCLC) was 3.27 µM. It also gave a GI50 (OVCAR-3 ovarian) of 1.42 µM, a TGI (OVCAR-3 ovarian) of 2.73 µM and a GI50 (UO-31 renal) of 0.34 µM. The TGI (UO-31 renal) was 1.48 µM, the GI50 (TK-10 renal) was 1.65 µM and the TGI (TK-10 renal) was 3.16 µM. It also gave a GI50 (OVCAR-4 ovarian) of 1.81 µM, a TGI (OVCAR-4 ovarian) of 3.23 µM and a GI50 (MALME-3M melanoma) of 2.05 µM. It also gave a TGI (MALME-3M melanoma) of 4.27 µM, a GI50 (A498 renal) of 1.61 µM and a TGI (A498 renal) of 4.51 µM. The GI50 (UACC-62 melanoma) was 1.88 µM, the TGI (UACC-62 melanoma) was 3.82 µM and the GI50 (HCT-116 colon) was 0.661 µM. The TGI (HCT-116 colon) was 2.17 µM, the GI50 (HL-60(TB) leukemia) was 0.456 µM and the TGI (HL-60(TB) leukemia) was 2.7 µM. For the same compound, the GI50 (NCI/ADR-RES ovarian) was 1.32 µM, the TGI (NCI/ADR-RES ovarian) was 2.94 µM and the GI50 (MDA-MB-435) was 1.61 µM. It also gave a TGI (MDA-MB-435) of 3.22 µM, a GI50 (MOLT-4 leukemia) of 0.918 µM and a TGI (MOLT-4 leukemia) of 4.4 µM. For the same compound, the GI50 (BT-549 breast) was 1.69 µM and the TGI (BT-549 breast) was 3.1 µM.

— PubChem BioAssay (NCI)
